{"source": "patent US20230227546A1", "about": "“TYPE 2 CYTOKINES AS PREDICTORS OF DISEASE SEVERITY AND/OR AS T[…] FOR COVID-19” (priority 2020, published 2023)", "tested_on": "COVID-19", "assay": "Retrospective analysis of international COVID-19 cohort (TriNetX COVID-19 Research Network), Dupilumab", "type": "in vivo, human", "settings": "for Risk Difference (95% CI), Deceased / Risk Difference (95% CI), Ventilated: with vs without Dupilumab", "key": {"[1]": {"settings": "Diagnoses Matching, 65 patients with Dupilumab"}, "[2]": {"settings": "Dupilumab prescribed prior to COVID-19 diagnosis"}, "[3]": {"settings": "Full Cohort, 81 patients with Dupilumab"}}, "data": [{"substance": "Dupilumab: anti-human IL4Rα monoclonal antibody that blocks IL-13 and IL-4 signaling; sold as DUPIXENT", "values": [{"measurement": "Deceased (number of patients) With Dupilumab", "setting": "1:1 Propensity Score Matching, 81 patients", "value": 0}, {"measurement": "Risk Difference (95% CI), Deceased", "setting": "1:1 Propensity Score Matching", "value": "12.3% (5.2-19.5)"}, {"measurement": "Serum C-Reactive Protein (CRP)", "setting": "COVID-19 patients With Dupilumab", "value": 25.3, "unit": "mg/L"}, {"measurement": "Deceased (number of patients) With Dupilumab", "setting": "[1]", "value": 0}, {"measurement": "Ventilated (number of patients) With Dupilumab", "setting": "[1]", "value": 0}, {"measurement": "Risk Difference (95% CI), Deceased", "setting": "Diagnoses Matching", "value": "1.83% (1.69-1.97)"}, {"measurement": "Risk Difference (95% CI), Ventilated", "setting": "Diagnoses Matching", "value": "0.67% (0.58-0.75)"}, {"measurement": "risk of death in COVID-19", "setting": "[2]", "value": "lower risk"}, {"measurement": "risk of ventilation in COVID-19", "setting": "[2]", "value": "lower risk"}, {"measurement": "CRP levels", "setting": "Dupilumab-prescribed patients with COVID-19", "value": "reduced"}, {"measurement": "Deceased (number of patients) With Dupilumab", "setting": "[3]", "value": 0}, {"measurement": "Ventilated (number of patients) With Dupilumab", "setting": "[3]", "value": 0}, {"measurement": "Risk Difference (95% CI), Deceased", "setting": "Full Cohort", "value": "1.98% (1.94-2.03)"}, {"measurement": "Risk Difference (95% CI), Ventilated", "setting": "Full Cohort", "value": "0.37% (0.35-0.39)"}, {"measurement": "CRP Sub-cohort Difference", "setting": "With vs Without Dupilumab", "value": "12."}]}]}
